Test results from patent publication US8809396B2, “Substituted fused-ring compounds for inflammation and immune-related uses” (Synta Pharmaceuticals Corp., priority 2007, dated 2014).

System: IL-2 production
Assay: Inhibition of IL-2 production in PHA-activated Jurkat cells (ELISA)
Format: cell-based
Conditions: Homo sapiens, PHA 2.5 μg/mL, 20 hours, IL-2 ELISA
Method: Jurkat cells were placed in a 96 well plate (0.5 million cells per well in 1% FBS medium) then a test compound of this invention was added at different concentrations. After 10 minutes, the cells were activated with PHA (final concentration 2.5 μg/mL) and incubated for 20 hours at 37° C. under CO2. The final volume was 200 μL. Following incubation, the cells were centrifuged and the supernatants collected and stored at −70° C. prior to assaying for IL-2 production. A commercial ELISA kit (IL-2 Eli-pair, Diaclone Research, Besancon, France) was used to detect production of IL-2, from which dose response curves were obtained. The IC50 value was calculated as the concentration at which 50% of maximum IL-2 production after stimulation was inhibited versus a non-stimulation control.

IC50 [nM] | SMILES
> 1000 | C/C(C(=O)O)=C1/CCCc2cc(NC(=O)c3c(F)cccc3F)ccc21 [Compound 1, 2-[6-(2,6-Difluoro-benzoylamino)-3,4-dihydro-2H-naphthalen-1-ylidene]-propionic acid]
> 1000 | COC(=O)/C(C)=C1\CCCc2cc(NC(=O)c3c(F)cccc3F)ccc21 [Compound 2, 2-[6-(2,6-Difluoro-benzoylamino)-3,4-dihydro-2H-naphthalen-1-ylidene]-propionic acid methyl ester]
18 | C/C(C(=O)N1CCOCC1)=C1/CCCc2cc(NC(=O)c3c(F)cccc3F)ccc21 [Compound 3, 2,6-Difluoro-N-[5-(1-methyl-2-morpholin-4-yl-2-oxo-ethylidene)-5,6,7,8-tetrahydro-naphthalen-2-yl]-benzamide]
> 1000 | C/C(CO)=C1/CCCc2cc(NC(=O)c3c(F)cccc3F)ccc21 [Compound 5, 2,6-Difluoro-N-[5-(2-hydroxy-1-methyl-ethylidene)-5,6,7,8-tetrahydro-naphthalen-2-yl]-benzamide]
168 | O=C(Nc1ccc2c(c1)CCCC=C2c1ccccc1)c1c(F)cccc1F [Compound 6, 2,6-Difluoro-N-(5-phenyl-8,9-dihydro-7H-benzocyclohepten-2-yl)-benzamide]
392 | CC1=C(c2ccccc2)c2ccc(NC(=O)c3c(F)cccc3F)cc2CCC1 [Compound 7, 2,6-Difluoro-N-(5-phenyl-6-methyl-8,9-dihydro-7H-benzocyclohepten-2-yl)-benzamide]
146 | Nc1ccc(C2=CCCCc3cc(NC(=O)c4c(F)cccc4F)ccc32)cc1 [Compound 8, 2,6-Difluoro-N-[5-(4-amino-phenyl)-8,9-dihydro-7H-benzocyclohepten-2-yl]-benzamide]
560 | CC(=O)Nc1ccc(C2=CCCCc3cc(NC(=O)c4c(F)cccc4F)ccc32)cc1 [Compound 9, 2,6-Difluoro-N-[5-(4-acetylamino-phenyl)-8,9-dihydro-7H-benzocyclohepten-2-yl]-benzamide]
